# Laboratory results: US9867794B2, “Regulation of osteopontin” (Pathologica LLC, priority 2007, dated 2018)
# B1: MCSF: growth factor MCSF (protein, UniProt P09603 33-554, looked up)
# Macrophage colony-stimulating …: EEVSEYCSHMIGSGHLQSLQRLIDSQMETSCQITFEFVDQEQLKDPVCYLKKAFLLVQDIMEDTMRFRDNTPNAIAIVQLQELSLRLKSCFTKDYEEHDKACVRTFYETPLQLLEKVKNVFNETKNLLDKDWNIFSKNCNNSFAECSSQDVVTKPDCNCLYPKAIPSSDPASVSPHQPLAPSMAPVAGLTWEDSEGTEGSSLLPGEQPLHTVDPGSAKQRPPRSTCQSFEPPETPVVKDSTIGGSPQPRPSVGAFNPGMEDILDSAMGTNWVPEEASGEASEIPVPQGTELSPSRPGGGSMQTEPARPSNFLSASSPLPASAKGQQPADVTGTALPRVGPVRPTGQDWNHTPQKTDHPSALLRDPPEPGSPRISSLRPQGLSNPSTLSAQPQLSRSHSSGSVLPLGELEGRRSTRDRRSPAEPEGGPASEGAARPLPRFNSVPLTDTGHERQSEGSFSPQLQESVFHLLVPSVILVLLAVGGLLFYRWRRRSHQEPQRADSPLEQPEGSPLTQDDRQVELPV
# Tests used:
# OPN RNA = assay: OPN production inhibition assay in un-stimulated PBMC cultures, OPN RNA; type: cell-based; settings: 10 μM, harvested 1, 3 and 6 days
# Experimental: (§1) 10 μM of each drug was added to un-stimulated PBMC cultures at time=0 and cells were harvested 1,3, and 6 days later for quantitative OPN RNA and protein production analysis.
# OPN protein = assay: OPN production inhibition assay in un-stimulated PBMC cultures, OPN protein; type: cell-based; settings: 10 μM
# Experimental: as §1
# CD14+/CD16+ cells [1] = assay: Macrophage activation via flow cytometry, mononuclear cells cultured for 3 days; type: cell-based
# Experimental: (§2) We investigated macrophage activation via flow cytometry and levels of pro- and anti-inflammatory cytokines in cell culture supernatants of mononuclear cells. 10 μg/ml recombinant human OPN (rOPN) was added to mononuclear cells cultured for 3 days, with and without fetal bovine serum (FBS) in cell culture medium, and analyzed via flow cytometry. […] An increase in CD14+/CD16+ cells was also observed with cells cultured in serum free medium and rOPN in comparison to control. To observe the effects of OPN neutralizing antibody on macrophage activation, 10 μg of antibody was added to cultures for 3 days. […] We also investigated the levels of pro- and anti-inflammatory cytokines in all cell culture supernatants of each time point. On average, IL-6, IL-1β, TNF-α, IL-10, and IL-12p40 were at least 50-fold higher with rOPN at 24 and 72 hours in all culture conditions in comparison to control.
# [2] = tested on: pro- and anti-inflammatory cytokines; assay: Cytokine levels in cell culture supernatants of mononuclear cells; type: cell-based; settings: rOPN
# Experimental: as §2
# CD14+/CD16+ cells [3] = assay: Exogenous rOPN on macrophage yield, flow cytometry of PBMC cultures; type: cell-based, human; settings: 10 μg/ml rOPN
# Experimental: To determine the role of exogenous recombinant human OPN (rOPN) in macrophage activation, 10 μg/ml rOPN(R&D Systems, Inc., Minneapolis, Minn.) was added to non-adherent PBMC cultures grown in complete or in serum free medium for 24 and 72 hours, and analyzed via flow cytometry. […] Shown in the upper right quadrant in FIG. 8 is the percentage of cells that are double positive for CD14 and CD16 surface markers.
# [4] = 24 and 72 hours, all culture conditions, on average
# [5] = any time point and culture condition
molecule,measurement,setting,value
"CCNCCCNC/C=C\CNCCCNCC.Cl.Cl.Cl.Cl [SL47, N,N′-bis(3-ethylaminopropyl)-cis-but-2-ene-1,4-diamine tetrahydrochloride]",OPN RNA expression,OPN RNA,inhibited in a time dependant manner
same,OPN protein production,OPN protein,Complete inhibition
"CCNCCCCNC[C@@H]1C[C@H]1CNCCCCNCC [SL93, N,N′-(cyclopropane-1,2-diylbis(methylene))bis(N4-ethylbutane-1,4-diamine)]",OPN RNA expression,OPN RNA,inhibited in a time dependant manner
same,OPN protein production,OPN protein,Complete inhibition
"rOPN: exogenous recombinant human OPN (R&D Systems, Inc.)",accumulation of CD14+/CD16+ cells vs FBS-only control,"CD14+/CD16+ cells [1]; 10 μg/ml rOPN and FBS, 24 hours",no significant accumulation
same,increase in CD14+/CD16+ cells vs control,"CD14+/CD16+ cells [1]; 10 μg/ml rOPN, 72 hours",12 fold
same,CD14+/CD16+ cells vs control,"CD14+/CD16+ cells [1]; 10 μg/ml rOPN, serum free medium",increase
same,IL-1β level vs control,[2]; [4],at least 50 fold
same,IL-6 level vs control,[2]; [4],at least 50 fold
same,IL-10 level vs control,[2]; [4],at least 50 fold
same,IL-12p40 level vs control,[2]; [4],at least 50 fold
same,TNF-α level vs control,[2]; [4],at least 50 fold
same,IL-4 level vs control,[2]; [5],no significant difference
same,IL-12p70 level vs control,[2]; [5],no significant difference
same,accumulation of CD14+/CD16+ cells vs control,"CD14+/CD16+ cells [3]; complete medium, 24 hours",no significant accumulation
same,increase in CD14+/CD16+ cells vs control,"CD14+/CD16+ cells [3]; complete medium, 72 hours",11 fold
same,increase in CD14+/CD16+ cells vs serum free control,"CD14+/CD16+ cells [3]; serum free, 72 hours",2.97 fold
B1,OPN RNA expression,OPN RNA,no effect
